Molecules are shown by their SMILES. Where only a bound is given, the exact number is not on record here.

Sequence of EXON 20 Insertion(NPG) Ba/F3 Cell (P00533 with tags, fused parts or gaps INS772GNP): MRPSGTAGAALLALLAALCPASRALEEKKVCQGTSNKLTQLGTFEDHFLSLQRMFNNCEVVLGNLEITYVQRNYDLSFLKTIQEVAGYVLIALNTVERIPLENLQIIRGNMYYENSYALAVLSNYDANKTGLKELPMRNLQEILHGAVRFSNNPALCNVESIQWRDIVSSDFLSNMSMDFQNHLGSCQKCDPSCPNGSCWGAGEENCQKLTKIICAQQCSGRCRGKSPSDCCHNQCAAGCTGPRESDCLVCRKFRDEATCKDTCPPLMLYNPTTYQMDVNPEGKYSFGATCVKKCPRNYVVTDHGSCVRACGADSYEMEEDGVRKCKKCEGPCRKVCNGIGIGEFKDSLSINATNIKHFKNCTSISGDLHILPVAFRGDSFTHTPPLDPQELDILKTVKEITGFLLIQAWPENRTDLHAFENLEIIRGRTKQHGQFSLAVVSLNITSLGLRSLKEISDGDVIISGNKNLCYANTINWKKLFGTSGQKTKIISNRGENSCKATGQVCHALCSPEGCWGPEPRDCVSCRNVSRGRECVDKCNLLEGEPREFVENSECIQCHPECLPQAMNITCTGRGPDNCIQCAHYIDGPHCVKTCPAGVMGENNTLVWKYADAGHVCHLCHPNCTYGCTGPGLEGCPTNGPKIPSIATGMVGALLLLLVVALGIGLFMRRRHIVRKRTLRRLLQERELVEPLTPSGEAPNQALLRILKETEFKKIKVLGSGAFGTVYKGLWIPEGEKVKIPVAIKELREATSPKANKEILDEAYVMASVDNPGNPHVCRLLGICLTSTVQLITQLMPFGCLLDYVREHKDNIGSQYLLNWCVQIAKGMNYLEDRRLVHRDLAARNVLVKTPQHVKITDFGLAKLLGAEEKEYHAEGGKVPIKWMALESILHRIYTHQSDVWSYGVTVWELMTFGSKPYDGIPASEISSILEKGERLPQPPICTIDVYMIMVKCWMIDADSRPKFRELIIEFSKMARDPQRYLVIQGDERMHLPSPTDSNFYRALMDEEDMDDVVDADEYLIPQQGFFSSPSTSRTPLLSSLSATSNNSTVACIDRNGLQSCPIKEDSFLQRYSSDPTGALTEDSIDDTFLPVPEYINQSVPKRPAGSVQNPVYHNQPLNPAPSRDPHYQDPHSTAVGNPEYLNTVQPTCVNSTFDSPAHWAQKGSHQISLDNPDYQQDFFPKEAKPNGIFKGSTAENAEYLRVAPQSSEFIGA

The target of the test is EXON 20 Insertion(NPG) Ba/F3 Cell (Homo sapiens, UniProt P00533, INS772GNP, cells depend on it). The experiment in a line: Measurement of cancer cell growth inhibitory effect (MTT assay). Particulars: Ba/F3 cells expressing EGFR with NPG added at D770_N771, 72 hours treatment, read at 595 nm, read-out: EXON 20 Insertion(NPG) Ba/F3 Cell(IC50). The format is cell-based, Murine. An excerpt:
Since there is no commercially available lung cancer cell line with EGFR insertion mutation, a method of inserting 3 to 4 amino acids at each site using site direct mutagenesis in a wild type EGFR expression vector was attempted. In the present invention, first, a vector with three amino acids of NPG added to the D770_N771 site with the highest frequency was used, and Ba/F3 cell line was used for expression of these genes.
When the oncogenic mutant EGFR is expressed, dependence on the mutant EGFR for cell growth and apoptosis occurs without IL-3. Therefore, substances that show effective inhibition of mutant EGFR suppress cell growth and induce apoptosis, so the anticancer effect of cells was analyzed through MTT assay.
1×10^4 cells of the previously constructed stable cells were put into a 96 well plate and incubated overnight, and then the compound of Example was dose dependently treated. After 72 hours, MTT reagent was added, and after 3 hours stop buffer (10% SDS) was added. After 24 hours of incubation, the results were analyzed by reading at 595 nm. […] As a control drug, Mobocertinib was used.
In the case of `C=CC(=O)Nc1cc(Nc2cc(Nc3ccccc3-c3ccn(C)n3)ncn2)c(OC)cc1N(C)CCN(C)C` [Example 1, N-(2-((2-(dimethylamino)ethyl)(methyl)amino)-4-methoxy-5-((6-((2-(1-methyl-1H-pyrazol-3-yl)phenyl)amino)pyrimidin-4-yl)amino)phenyl)acrylamide], the GI50 is below 25 nM. For `C=CC(=O)Nc1cc(Nc2cc(Nc3ccccc3-n3cccn3)ncn2)c(OC)cc1N(C)CCN(C)C` [Example 2, N-(5-((6-((2-(1H-pyrazol-1-yl)phenyl)amino)pyrimidin-4-yl)amino)-2-((2-(dimethylamino)ethyl)(methyl)amino)-4-methoxyphenyl)acrylamide], the GI50 is below 25 nM. `C=CC(=O)Nc1cc(Nc2cc(Nc3ccccc3-c3ccn(C)n3)ncn2)c(OC(C)C)cc1N(C)CCN(C)C` [Example 3, N-(2-((2-(dimethylamino)ethyl)(methyl)amino)-4-isopropoxy-5-((6-((2-(1-methyl-1H-pyrazol-3-yl)phenyl)amino)pyrimidin-4-yl)amino)phenyl)acrylamide]: the GI50 is 25 to 50 nM.

Regarding `C=CC(=O)Nc1cc(Nc2cc(Nc3ccccc3-c3ccn(C)n3)ncn2)c(OC)cc1N1CCN(C)CC1` [Example 4, N-(4-methoxy-5-((6-((2-(1-methyl-1H-pyrazol-3-yl)phenyl)amino)pyrimidin-4-yl)amino)-2-(4-methylpiperizin-1-yl)phenyl)acrylamide], the GI50 is 25 to 50 nM. In the case of `C=CC(=O)Nc1cc(Nc2cc(Nc3ccccc3-c3ccn(C)n3)ncn2)c(OC)cc1N1CCOCC1` [Example 5, N-(4-methoxy-5-((6-((2-(1-methyl-1H-pyrazol-3-yl)phenyl)amino)pyrimidin-4-yl)amino)-2-morpholinophenyl)acrylamide], the GI50 lay within 25 to 50 nM. For `C=CC(=O)Nc1cc(Nc2cc(Nc3ccccc3-c3ccn(C)n3)ncn2)c(OC)cc1N1CC[C@H](N(C)C)C1` [Example 6, (S)-N-(2-(3-(dimethylamino)pyrrolidin-1-yl)-4-methoxy-5-((6-((2-(1-methyl-1H-pyrazol-3-yl)phenyl)amino)pyrimidin-4-yl)amino)phenyl)acrylamide], the GI50 lay within 25 to 50 nM.

For `C=CC(=O)Nc1cc(Nc2cc(Nc3ccccc3-c3ccn(C)n3)ncn2)c(OC)cc1N1CC[C@@H](N(C)C)C1` [Example 7, (R)-N-(2-(3-(dimethylamino)pyrrolidin-1-yl)-4-methoxy-5-((6-((2-(1-methyl-1H-pyrazol-3-yl)phenyl)amino)pyrimidin-4-yl)amino)phenyl)acrylamide], the GI50 lay in the range of 25 to 50 nM.

For `C=CC(=O)Nc1cc(Nc2cc(Nc3ccccc3-c3ccn(C)n3)ncn2)c(OC)cc1N(C)[C@@H]1CCN(C)C1` [Example 8, (R)-N-(4-methoxy-2-(methyl(1-methylpyrrolidin-3-yl)amino)-5-((6-((2-(1-methyl-1H-pyrazol-3-yl)phenyl)amino)pyrimidin-4-yl)amino)phenyl)acrylamide], the GI50 lay in the range of 25 to 50 nM. With `C=CC(=O)Nc1cc(Nc2cc(Nc3ccccc3-c3ccn(C)n3)ncn2)c(OC)cc1N(C)[C@H]1CCN(C)C1` [Example 9, (S)-N-(4-methoxy-2-(methyl(1-methylpyrrolidin-3-yl)amino)-5-((6-((2-(1-methyl-1H-pyrazol-3-yl)phenyl)amino)pyrimidin-4-yl)amino)phenyl)acrylamide] the figure was 25 to 50 nM; with `C=CC(=O)Nc1cc(Nc2cc(Nc3ccccc3-c3ccn(C)n3)ncn2)c(OCC(F)(F)F)cc1N(C)CCN(C)C` [Example 10, N-(2-((2-(diamethylamino)ethyl)(methyl)amino)-5-((6-((2-(1-methyl-1H-pyrazol-3-yl)phenyl)amino)pyrimidin-4-yl)amino)-4-(2,2,2-trifluoroethoxy)phenyl)acrylamide], below 25 nM. Regarding `C=CC(=O)Nc1cc(Nc2cc(Nc3ccccc3-c3ccn(C)n3)ncn2)c(OCC)cc1N(C)CCN(C)C` [Example 11], the GI50 lay within 25 to 50 nM.

As to `C=CC(=O)Nc1cc(Nc2cc(Nc3ccccc3-c3ccn(C)n3)ncn2)c(OC2CC2)cc1N(C)CCN(C)C` [Example 12, N-(4-cyclopropoxy-2-((2-(dimethylamino)ethyl)(methyl)amino)-5-((6-((2-(1-methyl-1H-pyrazol-3-yl)phenyl)amino)pyrimidin-4-yl)amino)phenyl)acrylamide], the GI50 fell in the range of 25 to 50 nM. Take `C=CC(=O)Nc1cc(Nc2ncc(C#N)c(Nc3ccccc3-c3ccn(C)n3)n2)c(OC)cc1N(C)CCN(C)C` [Example 13, N-(5-((5-cyano-4-((2-(1-methyl-1H-pyrazol-3-yl)phenyl)amino)pyrimidin-2-yl)amino)-2-((2-(dimethylamino)ethyl)(methyl)amino)-4-methoxyphenyl)acrylamide]: the GI50 was in the range of 25 to 50 nM. Next, `C=CC(=O)Nc1cc(Nc2ncc(C)c(Nc3ccccc3-n3cccn3)n2)c(OC)cc1N(C)CCN(C)C` [Example 14, N-(5-((4-((2-(1H-pyrazol-1-yl)phenyl)amino)-5-methylpyrimidin-2-yl)amino)-2-((2-(dimethylamino)ethyl)(methyl)amino)-4-methoxyphenyl)acrylamide]: 25 to 50 nM; `C=CC(=O)Nc1cc(Nc2ncc(C(F)(F)F)c(Nc3ccccc3-c3ccn(C)n3)n2)c(OC)cc1N(C)CCN(C)C` [Example 15, N-(2-((2-(dimethylamino)ethyl)(methyl)amino)-4-methoxy-5-((4-((2-(1-methyl-1H-pyrazol-3-yl)phenyl)amino)-5-(trifluoromethyl)pyrimidin-2-yl)amino)phenyl)acrylamide]: 25 to 50 nM. Next, `C=CC(=O)Nc1cc(Nc2ncc(C(=O)OC(C)C)c(Nc3ccccc3-c3ccn(C)n3)n2)c(OC)cc1N(C)CCN(C)C` [Example 16, Isopropyl 2-((5-acrylamido-4-((2-(dimethylamino)ethyl)(methyl)amino)-2-methoxyphenyl)amino)-4-((2-(1-methyl-1H-pyrazol-3-yl)phenyl)amino)pyrimidin-5-carboxylate]: below 25 nM; `C=CC(=O)Nc1cc(Nc2ncc(C(=O)OC(C)C)c(Nc3ccccc3-n3cccn3)n2)c(OC)cc1N(C)CCN(C)C` [Example 17, Isopropyl 4-((2-(1H-pyrazol-1-yl)phenyl)amino)-2-((5-acrylamido-4-((2-(dimethylamino)ethyl)(methyl)amino)-2-methoxyphenyl)amino)pyrimidin-5-carboxylate]: below 25 nM. As for `C=CC(=O)Nc1cc(Nc2ncc(C(=O)OC)c(Nc3ccccc3-c3ccn(C)n3)n2)c(OC)cc1N(C)CCN(C)C` [Example 18, methyl 2-((5-acrylamido-4-((2-(dimethylamino)ethyl)(methyl)amino)-2-methoxyphenyl)amino)-4-((2-(1-methyl-1H-pyrazol-3-yl)phenyl)amino)pyrimidin-5-carboxylate], the GI50 was in the range of 25 to 50 nM. `C=CC(=O)Nc1cc(Nc2ncc(C(=O)OC)c(Nc3ccccc3-n3cccn3)n2)c(OC)cc1N(C)CCN(C)C` [Example 19, methyl 4-((2-(1H-pyrazol-1-yl)phenyl)amino)-2-((5-acrylamido-4-((2-(dimethylamino)ethyl)(methyl)amino)-2-methoxyphenyl)amino)pyrimidin-5-carboxylate]: the GI50 is 25 to 50 nM.

These data come from patent US20240166663A1, “NOVEL PYRIMIDINE DERIVATIVE SHOWING INHIBITION EFFECT ON GROWTH OF CANCER CELLS” (ONCOBIX CO., LTD., priority 2021, published 2024).
